Where two headings read alike, the source gives them in different places.
Columns and labels:
[1] = target: T1, KPC-2 β-lactamase (Klebsiella pneumoniae, UniProt Q9F663); assay: β-lactamase enzyme inhibition, KPC-2; format: biochemical
T1 construct: made in house; host or cells: E. coli BL21(DE3)
Experimental: (§1) For SHV-5, Kpc-2, p99AmpC and OXA-1 β-lactamases, E. coli BL21(DE3) bacterial cells carrying expression plasmids (expressed as native untagged proteins) for the individual β-lactamases were grown in 1 L of Superbroth (Teknova Inc. Hollister, Calif.) supplemented with 100 μg/ml kanamycin selection and 1×5052 (0.5% glycerol, 0.05% glucose and 0.2% α-lactose) at 35° C. for 18-20 hours. Cells were harvested by centrifugation (4,000×g, 4° C., 20 min), resuspended in 50 ml of 10 mM HEPES pH 7.5 ( 1/20 of the initial volume). The cells were lysed by sonication (5 pulses of 45 seconds) at 45 W on ice. The lysates were clarified by centrifugation at 10,000×g for 40 minutes at 4° C. Samples were diluted 5-fold in 50 mM sodium acetate pH 5.0, stored overnight at 4° C., after which they were centrifuged at 10,000×g for 30 minutes to clarify, and filtered through 0.45 μm filters. The samples were loaded onto a 5 ml Capto S sepharose cation exchange column (GE Healthcare) pre-equilibrated with 50 mM sodium acetate pH 5.0. The column was washed with 5 column volumes of 50 mM sodium acetate pH 5.0 to wash out unbound protein and a linear gradient of NaCl (0 to 500 mM) was used to elute the protein (over 16 CV) from the column. Fractions were assayed for […] activity using Centa (Calbiochem, Gibbstown, N.J.) or Nitrocefin (EMD Millipore chemicals, Darmstadt, Germany) as a reporter β-lactamase substrate for activity in the isolated fractions. Active fractions were pooled, concentrated and further purified by gel filtration chromatography on a Superdex 75 prep grade gel filtration column (GE Healthcare, Piscataway, N.J.) pre-equilibrated in 50 mM Hepes pH 7.5, 150 mM NaCl. Active fractions were pooled, concentrated, and quantitated by BCA protein determination (Thermo Scientific, Rockford, Ill.), dialyzed into PBS and frozen at −80° C. in 20% glycerol until use.
(§2) An equal volume of diluted enzyme stock was added, and the plates were incubated at 37° C. for 15 min. Nitrocefin was used as substrate for p99 AmpC, VIM-2 and OXA-1 and dispensed into each well at a final concentration of 100 μM. Absorbance at 486 nm was immediately monitored for 10 min using a Biotek Powerwave XS2 microplate spectrophotometer using the GEN5 software package (Biotek Instruments, Winooski Vt.). In an analogous fashion, imipenem was used as substrate for KPC-2 and Cefotaxime was used for SHV-5, while changes in absorbance upon hydrolysis of the β-lactam ring were monitored at 300 nm and 260 nm respectively in UV-transparent 96-well microtiter assay plates. Maximum rates of hydrolysis were compared to those in control wells (without inhibitors), and percentages of enzyme inhibition were calculated for each concentration of inhibitor. The concentration of inhibitor needed to reduce the initial rate of hydrolysis of substrate by 50% (IC50) was calculated as the residual activity of β-lactamase at 486 nm using GraFit version 7 kinetics software package (Erithacus Software, Surrey, UK).
(§3) Using the methodology described above, examples of the current invention were evaluated for their ability to inhibit β-lactamase enzymes from all four Ambler classifications (A through D). […] NT=Not tested.

[2] = target: T2, p99 AmpC β-lactamase (Enterobacter cloacae, UniProt P05364); assay: β-lactamase enzyme inhibition, p99 AmpC; format: biochemical
T2 construct: made in house; host or cells: E. coli BL21(DE3)
T2 sequence (P05364 21-381): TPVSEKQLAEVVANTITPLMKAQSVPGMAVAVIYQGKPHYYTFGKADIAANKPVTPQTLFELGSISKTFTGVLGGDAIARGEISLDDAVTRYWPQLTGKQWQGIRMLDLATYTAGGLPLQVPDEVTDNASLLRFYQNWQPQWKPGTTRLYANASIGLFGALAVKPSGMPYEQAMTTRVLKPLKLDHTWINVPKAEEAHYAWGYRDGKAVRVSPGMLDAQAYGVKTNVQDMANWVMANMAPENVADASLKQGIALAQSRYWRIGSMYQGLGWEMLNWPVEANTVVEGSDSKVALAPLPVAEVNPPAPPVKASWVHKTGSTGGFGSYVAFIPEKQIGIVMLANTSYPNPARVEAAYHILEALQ
Experimental: as §1, §2
Using the methodology described above, examples of the current invention were evaluated for their ability to inhibit β-lactamase enzymes from all four Ambler classifications (A through D).

[3] = target: T3, VIM-2 metallo β-lactamase (Pseudomonas aeruginosa, UniProt Q9K2N0); assay: β-lactamase enzyme inhibition, VIM-2; format: biochemical; conditions: Nitrocefin 100 μM, 486 nm; 15 min at 37° C. preincubation; read-out: IC50 VIM-2 (Class B)
T3 construct: made in house; host or cells: E. coli BL21(DE3)
Experimental: For VIM-2 metallo β-lactamase, the procedure was identical with the following exceptions, first the protein was not pH adjusted to pH 5 with 50 mM sodium acetate. Second, the chromatography step was changed to a 5 ml Q sepharose anion exchange column pre-equilibrated with 50 mM Hepes pH 7.5, and elution of the protein was achieved by a linear gradient of NaCl (0-600 mM). Finally, the VIM-2 purification required a second run (3rd step) on the Q sepharose anion exchange column to achieve acceptable purity (>90%).
as §2, §3

[4] = target: T4, OXA-1 β-lactamase (Escherichia coli, UniProt P13661); assay: β-lactamase enzyme inhibition, OXA-1; format: biochemical; conditions: Nitrocefin 100 μM, 486 nm; 15 min at 37° C. preincubation; read-out: IC50 OXA-1 (Class D)
T4 construct: made in house; host or cells: E. coli BL21(DE3)
T4 sequence (P13661 26-276): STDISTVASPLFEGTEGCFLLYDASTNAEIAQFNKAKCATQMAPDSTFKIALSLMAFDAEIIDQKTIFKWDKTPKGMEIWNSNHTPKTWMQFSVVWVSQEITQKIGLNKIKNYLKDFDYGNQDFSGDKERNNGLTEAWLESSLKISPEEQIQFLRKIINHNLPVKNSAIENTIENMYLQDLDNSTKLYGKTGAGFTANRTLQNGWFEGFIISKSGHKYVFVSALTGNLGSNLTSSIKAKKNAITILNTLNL
Experimental: as §1, §2, §3

[5] = test system: E. coli ESBL4 expressing CTX-M-15; assay: broth microdilution MIC, E. coli CTX-M-15; format: cell-based; conditions: Fixed CAZ (ceftazidime) 4 μg/mL
Excerpt: (§4) To determine the ability of test compounds to potentiate the inhibition of the growth of bacterial strains that produce beta-lactamase enzymes, classic cell based broth microdilution MIC assays were employed. Six bacteria strains producing beta-lactamase enzymes were used: E. coli expressing the Class A Extended Spectrum Beta-Lactamase (ESBL) CTX-M-15, E. cloacae expressing the Class C P99, K. pneumoniae expressing the Class A carbapenemase KPC-3, P. aeruginosa expressing the Class B carbapenemase VIM-2, K pneumoniae expressing the class A carbapenemase KPC-2 and the class B carbapenemase VIM-4, and S. aureus producing the Class A penicillinase PC-1. The assay was conducted in Cation Adjusted Mueller Hinton Broth (CAMHB, BD #212322, BD Diagnostic Systems, Sparks, Md.). Bacteria strains were grown for 3-5 hours in CAMBH broth. Test compounds were added to a microtiter plate in 2-fold serial dilutions in CAMHB in a final concentration range of 32 μg/mL to 0.25 μg/ml. An overlay of CAMHB containing a Beta-lactam was added to the compounds at a final static concentration of 4 μg/ml. […] In addition to the titration of test compounds the MICs of a panel of control beta-lactams is also tested to ensure the strains are behaving consistently from test to test. Once the test compound and antibiotics are added the plates can be inoculated according to CLSI broth microdilution method. After inoculation the plates are incubated for 16-20 hours at 37° C., then the Minimal Inhibitory Concentration (MIC) of the test compound is determined visually.
(§5) Using the methodology described above, examples of the current invention were evaluated for their ability to inhibit the growth of β-lactamase-producing bacteria in the presence of a β-lactam antibiotic.
(§6) Representative results are shown in Table 4 where A represents an MIC of the fixed β-lactam antibiotic in the presence of >32 µg/mL of a β-lactamase inhibitor of exemplary compounds, B represents the MIC in the presence of between 8 and 32 µg/mL of a β-lactamase inhibitor of exemplary compounds, and C represents the MIC in the presence of ≤4 µg/mL of a β-lactamase inhibitor of exemplary compounds. NT=Not Tested.

[6] = test system: K. pneumoniae A-1797 expressing KPC-2 and VIM-4; assay: broth microdilution MIC, K. pneumoniae KPC-2 and VIM-4; format: cell-based; conditions: Fixed Mero (meropenem) 4 μg/mL
Excerpt: as §4, §5, §6

[7] = test system: K. pneumoniae 156319 expressing KPC-3; assay: broth microdilution MIC, K. pneumoniae KPC-3; format: cell-based; conditions: Fixed Mero (meropenem) 4 μg/mL
Excerpt: as §4, §5, §6

[8] = test system: E. cloacae 144200 expressing Class C P99 AmpC; assay: broth microdilution MIC, E. cloacae P99; format: cell-based; conditions: Fixed CAZ (ceftazidime) 4 μg/mL
Excerpt: as §4, §5, §6

[9] = target: T5, SHV-5 β-lactamase (Klebsiella pneumoniae, UniProt P0A3M1); assay: β-lactamase enzyme inhibition, SHV-5; format: biochemical
T5 construct: made in house; host or cells: E. coli BL21(DE3)
T5 sequence (P0A3M1 22-286): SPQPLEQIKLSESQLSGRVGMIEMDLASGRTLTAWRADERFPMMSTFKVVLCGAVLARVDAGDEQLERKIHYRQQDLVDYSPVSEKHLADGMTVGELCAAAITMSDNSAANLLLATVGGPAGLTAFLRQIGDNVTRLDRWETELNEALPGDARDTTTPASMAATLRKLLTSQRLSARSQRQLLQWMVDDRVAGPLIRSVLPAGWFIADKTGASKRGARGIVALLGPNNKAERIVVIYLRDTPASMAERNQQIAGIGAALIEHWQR
Experimental: as §1, §2, §3

[10] = imipenem substrate, 300 nm, 15 min at 37° C. preincubation, read-out: IC50 KPC-2 (Class A)

T1 sequence (Q9F663 25-293, looked up): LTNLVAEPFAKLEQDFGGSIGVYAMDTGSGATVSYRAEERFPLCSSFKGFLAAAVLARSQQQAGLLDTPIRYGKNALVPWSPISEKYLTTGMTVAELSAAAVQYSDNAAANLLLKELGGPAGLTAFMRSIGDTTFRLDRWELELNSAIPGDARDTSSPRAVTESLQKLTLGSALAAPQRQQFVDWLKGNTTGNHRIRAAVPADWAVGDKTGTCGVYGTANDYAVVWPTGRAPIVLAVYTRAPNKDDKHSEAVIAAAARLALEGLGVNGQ

| SMILES | IC50 [1] [nM] | IC50 [2] [nM] | IC50 [3] [nM] | IC50 [4] [nM] | MIC of exemplary compounds in presence of fixed β-lactams, E. coli ESBL4 CTX-M-15 [5] | MIC of exemplary compounds in presence of fixed β-lactams, K.P. A-1797 KPC-2 VIM-4 [6] | MIC of exemplary compounds in presence of fixed β-lactams, K.P. 156319 KPC-3 [7] | MIC of exemplary compounds in presence of fixed β-lactams, E. cl. 144200 p99 AmpC [8] | IC50 [9] [nM] | IC50 [1, 10] [nM] |
| --- | --- | --- | --- | --- | --- | --- | --- | --- | --- | --- |
| NS(=O)(=O)CCC(=O)N[C@H]1Cc2cccc(C(=O)O)c2OB1O [Example 35, (R)-2-Hydroxy-3-(3-sulfamoyl-propionylamino)-3,4-dihydro-2H-benzo[e][1,2]oxaborinin-8-carboxylic acid] | < 100 | < 100 | 100 to 1000 | < 100 | C (C represents the MIC in the presence of ≤4 g/mL of a β-lactamase inhibitor) | C (C represents the MIC in the presence of ≤4 g/mL of a β-lactamase inhibitor) | C (C represents the MIC in the presence of ≤4 g/mL of a β-lactamase inhibitor) | C (C represents the MIC in the presence of ≤4 g/mL of a β-lactamase inhibitor) | < 100 | – |
| NC(=O)NCC(=O)N[C@H]1Cc2cccc(C(=O)O)c2OB1O [Example 36, (R)-2-Hydroxy-3-(2-ureido-acetylamino)-3,4-dihydro-2H-benzo[e][1,2]oxaborinin-8-carboxylic acid] | – | < 100 | 100 to 1000 | < 100 | C (C represents the MIC in the presence of ≤4 g/mL of a β-lactamase inhibitor) | C (C represents the MIC in the presence of ≤4 g/mL of a β-lactamase inhibitor) | C (C represents the MIC in the presence of ≤4 g/mL of a β-lactamase inhibitor) | C (C represents the MIC in the presence of ≤4 g/mL of a β-lactamase inhibitor) | < 100 | 100 to 1000 |
| C#CCCC(=O)N[C@H]1Cc2cccc(C(=O)O)c2OB1O [Example 37, (R)-2-Hydroxy-3-pent-4-ynoylamino-3,4-dihydro-2H-benzo[e][1,2]oxaborinine-8-carboxylic acid] | < 100 | < 100 | 1000 to 10000 | < 100 | C (C represents the MIC in the presence of ≤4 g/mL of a β-lactamase inhibitor) | B (B represents the MIC in the presence of between 8 and 32 g/mL of a β-lactamase inhibitor) | C (C represents the MIC in the presence of ≤4 g/mL of a β-lactamase inhibitor) | C (C represents the MIC in the presence of ≤4 g/mL of a β-lactamase inhibitor) | < 100 | – |
| O=C(CCC(=O)C(F)(F)F)N[C@H]1Cc2cccc(C(=O)O)c2OB1O [Example 38, (R)-2-Hydroxy-3-(5,5,5-trifluoro-4-oxo-pentanoylamino)-3,4-dihydro-2H-benzo[e][1,2]oxaborinine-8-carboxylicacid] | – | < 100 | 1000 to 10000 | < 100 | B (B represents the MIC in the presence of between 8 and 32 g/mL of a β-lactamase inhibitor) | B (B represents the MIC in the presence of between 8 and 32 g/mL of a β-lactamase inhibitor) | B (B represents the MIC in the presence of between 8 and 32 g/mL of a β-lactamase inhibitor) | C (C represents the MIC in the presence of ≤4 g/mL of a β-lactamase inhibitor) | < 100 | 100 to 1000 |
| CC(=O)/C=C/C(=O)N[C@H]1Cc2cccc(C(=O)O)c2OB1O [Example 39, (R)-2-Hydroxy-3-(4-oxo-pent-2-enoylamino)-3,4-dihydro-2H-benzo[e][1,2]oxaborinine-8-carboxylic acid] | – | < 100 | 100 to 1000 | < 100 | C (C represents the MIC in the presence of ≤4 g/mL of a β-lactamase inhibitor) | B (B represents the MIC in the presence of between 8 and 32 g/mL of a β-lactamase inhibitor) | B (B represents the MIC in the presence of between 8 and 32 g/mL of a β-lactamase inhibitor) | C (C represents the MIC in the presence of ≤4 g/mL of a β-lactamase inhibitor) | < 100 | < 100 |
| CC(C)(C)C(=O)CCC(=O)N[C@H]1Cc2cccc(C(=O)O)c2OB1O [Example 40, (R)-3-(5,5-Dimethyl-4-oxo-hexanoylamino)-2-hydroxy-3,4-dihydro-2H-benzo[e][1,2]oxaborinine-8-carboxylic acid] | – | < 100 | 1000 to 10000 | < 100 | C (C represents the MIC in the presence of ≤4 g/mL of a β-lactamase inhibitor) | B (B represents the MIC in the presence of between 8 and 32 g/mL of a β-lactamase inhibitor) | B (B represents the MIC in the presence of between 8 and 32 g/mL of a β-lactamase inhibitor) | C (C represents the MIC in the presence of ≤4 g/mL of a β-lactamase inhibitor) | < 100 | < 100 |
